Source: ChEMBL document CHEMBL1143112, “Three-component, one-pot synthesis of novel 2,4-substituted 5-azolylthiopyrimidine library for screening against anti-influenza virus A” (Bioorg Med Chem Lett, 2008)
Values after ≈ are worked out from the molar mass of the structure shown.

Legend:
Influenza B virus = assay: Antiviral activity against influenza B virus expressed in dog MDCK cells assessed as reduction of virus-induced cytopathic effect; assay type: functional, organism-based
[1] = Selectivity index, CC50 for dog MDCK cells to IC50 for influenza A virus H3N2; assay type: functional
[2] = Cytotoxicity against dog MDCK cells; assay type: cell-based, Canis lupus familiaris

Compound | CC50 [2] [µg/mL] | also measured
NC(=O)c1ncn([C@@H]2O[C@H](CO)[C@@H](O)[C@H]2O)n1 [RIBAVIRIN] | – | IC50 (Influenza B virus): 4270 µg/mL (≈ 17.5 mM)
Cn1ccnc1Sc1cnc(C(C)(C)C)nc1-c1ccccc1O | – | Selectivity index [1]: 9
CC(C)(C)c1nccc(-c2ccccc2O)n1 | 16200 (≈ 71.2 mM) | –
CC(C)(C)c1ncc(Sc2nc[nH]n2)c(-c2cc(Cl)ccc2O)n1 | 9580 (≈ 26.5 mM) | –
COc1ccc(O)c(-c2nc(SC)ncc2Sc2nccn2C)c1 | 7190 (≈ 19.9 mM) | –
